Assay [1] addresses T1, Chymotrypsinogen A (Bos taurus, UniProt P00766). In words: Inhibition constant for inhibition of alpha-chymotrypsin by the UV light.
In assay [2] the target is T1, Chymotrypsinogen A. In words: Inhibition constant for inhibition of alpha-chymotrypsin by the ambient light.

pKi: −log10 of the molar value.

Usually pKi stands for the Ki on a negative log10 scale, so that one unit is a factor of ten. A high value points to a small Ki. `COC(=O)C(=O)[C@H](Cc1ccccc1)NC(=O)c1ccc(/N=N/c2ccccc2)cc1`: the pKi was 6.89 at Chymotrypsinogen A [1] and 6.62 on Chymotrypsinogen A [2].

`COC(=O)C(=O)[C@H](Cc1ccccc1)NC(=O)OCc1ccc(/N=N/c2ccccc2)cc1`: the pKi at Chymotrypsinogen A [1] was 6.54; at Chymotrypsinogen A [2], 6.11.

Source of the values: ChEMBL document CHEMBL1134738, “Alpha-ketoester-based photobiological switches: synthesis, peptide chain extension and assay against alpha-chymotrypsin” (Bioorg Med Chem Lett, 2001).
